Values after ≈ are worked out from the molar mass of the structure shown. Where a SMILES comes first, the peptide text is derived from it.
Experiments:
[1] = system: primary human dermal fibroblasts; type: cell-based; conditions: 48 h
Description: (§1) The BALB/c 3T3 murine fibroblast cell line was obtained from ATCC (American Type Culture Collection, Manassas, VA, USA). Primary human dermal fibroblasts were isolated by enzymatic digestion from skin biopsies in the Laboratory of Bioanalytical and Biodosimetry Methods, University of Latvia, in accordance with the approval of the Committee of Research Ethics of the Institute of Cardiology and Regenerative Medicine, University of Latvia. Cells were propagated in DMEM medium (Sigma, Irvine, UK), supplemented with 1% penicillin (100 U/mL)–streptomycin (100 μg/mL), and 10% calf serum (Sigma, St. Louis, MO, USA) for Balb/c 3T3 cell line and fetal bovine serum (Sigma, St. Louis, MO, USA) for primary dermal fibroblasts. All cultivations were performed in a humidified 5% CO2 atmosphere at 37 °C.
(§2) The cytotoxicity of the peptides was tested in the BALB/c3T3 cell line and primary dermal fibroblasts by the neutral red (NR) uptake assay. Cells were seeded in 96-well plates at a density of 5 × 10^3 cells per well. After 24 h of incubation, peptides in a concentration range of 3.9 to 500 μg/mL were added. Dilutions were made in a cell cultivation medium. Cultivation in the presence of extracts was performed for 48 h. Afterwards, plates were washed with phosphate-buffered saline (PBS) (Sigma, Irvine, UK), and a 25 µg/mL NR solution (Sigma, Irvine, UK) diluted in 5%-fetal-calf-serum-containing-media was added. After 3 h, incubation in a humidified 5% CO2 atmosphere at 37 °C, the plate was washed with PBS, and the NR taken up by viable cells was extracted using desorbing fixative (50% ethanol/1% acetic acid/49% water). Absorbance at 540 nm was measured using a microplate reader Tecan Infinite® 200 PRO (Tecan Group Ltd., Mannedorf, Switzerland). Cytotoxicity was expressed as a concentration-dependent reduction in the uptake of NR, compared to the untreated controls and calculated using the following equation: Cell viability (%)=Abs540nm(treatment)−Abs540nm(background)/Abs540nm(untreated control)−Abs540nm(background)×100%

[2] = system: BALB/c 3T3 murine fibroblast cell line; test: Cytotoxicity, neutral red uptake assay; type: cell-based
Description: as §1, §2

E. coli = test: microbe, parasite or virus in culture; type: cell-based, Escherichia coli
Method: (§3) Quantification of the antimicrobial resistance against various AMPs was carried out by measuring the bacterial growth in the presence of peptides at serial dilutes in 96 well plates in a microplate (96-well plate) reader Infinite® M200 PRO Multimode Microplate Reader (Tecan, Maennedorf, Switzerland) according to our recent reports. All bacterial strains were incubated at 32 °C for 13–18 h at 200 rpm. Optical density measurements (λ = 550 nm) were taken automatically at 10 min intervals. Antimicrobial resistance activity was quantified as the minimum inhibitory concentration (MIC)—the lowest concentration of a peptide which prevents growth of bacterial cells.

[3] = system: fresh human blood (red blood cell lysis); test: Hemolysis assay; type: cell-based; conditions: for hemolysis ratio (HR): red cells of human, 1 h
Method: A hemolysis test was performed to assess the hemocompatibility of the peptides. Blood from healthy donors was collected in Monovette vacutainers containing Ethylenediamine tetra-acetic acid (EDTA). Blood was diluted with 0.9% sodium chloride solution supplemented with 10 U/mL heparin (4:5 ratio by volume). Peptides were added to 1.5 mL vials containing fresh 0.49 mL PBS and incubated at 37 °C and 5% CO2 for 30 min, and 10 μL of diluted blood was added to each vial and incubated at 37 °C and 5% CO2 for 1 h. PBS was used as a negative control and deionized water was used as a positive control. After incubation tubes were centrifuged at 3000 rpm for 5 min, the supernatants were collected, and the absorbance was measured at a wavelength of 545 nm in a microplate reader Tecan Infinite® 200 PRO (Tecan Group Ltd., Mannedorf, Switzerland).
The hemolytic ratio (HR) was calculated by the following equation: HR (%)=(Abs(sample)−Abs(negative control))/(Abs (positive control−Abs(negative control))×100%

K. pneumonia = test: microbe, parasite or virus in culture; type: cell-based, Klebsiella pneumoniae
Method: as §3

S. aureus = test: microbe, parasite or virus in culture; type: cell-based, Staphylococcus aureus
Method: as §3

P. aeruginosa = test: microbe, parasite or virus in culture; type: cell-based, Pseudomonas aeruginosa
Method: as §3

C. acnes = test: microbe, parasite or virus in culture; type: cell-based, Cutibacterium acnes
Method: as §3

E. faecium = test: microbe, parasite or virus in culture; type: cell-based, Enterococcus faecium
Method: as §3

SMILES | MIC E. coli (E. coli) [µg/mL] | MIC K. pneumonia (K. pneumonia) [µg/mL] | MIC S. aureus (S. aureus) [µg/mL] | MIC P. aeruginosa (P. aeruginosa) [µg/mL] | MIC C. acnes (C. acnes) [µg/mL] | MIC E. faecium (E. faecium) [µg/mL] | IC50, viability of human primary dermal fibroblasts [1] [µg/mL] | IC50, viability of Balb/c 3T3 cells ([2]; 48 h) [µg/mL] | Therapeutic Index C. acnes (C. acnes) | Therapeutic Index E. coli (E. coli) | hemolytic activity [3] | Therapeutic Index K. pneumonia (K. pneumonia) | Therapeutic Index S. aureus (S. aureus) | Therapeutic Index P. aeruginosa (P. aeruginosa) | Therapeutic Index E. faecium (E. faecium) | further results
CC(C)C[C@H](NC(=O)[C@H](C)NC(=O)[C@H](CCCCN)NC(=O)[C@H](CC(C)C)NC(=O)[C@H](C)NC(=O)[C@H](CCCCN)NC(=O)[C@H](CC(C)C)NC(=O)[C@H](CC(C)C)NC(=O)[C@H](C)NC(=O)[C@H](CCCCN)NC(=O)[C@H](CC(C)C)NC(=O)[C@H](C)NC(=O)[C@H](CCCCN)NC(=O)[C@H](C)NC(=O)[C@@H](N)Cc1ccccc1)C(=O)O [Oligo10] (H-FAKALKALLKALKAL-OH) | 16.0 (≈ 10 µM) | 63.0 (≈ 39.4 µM) | 4.0 (≈ 2.5 µM) | 63.0 (≈ 39.4 µM) | 2.0 (≈ 1.25 µM) | 16.0 (≈ 10 µM) | 241.54 | 218.21 |  |  |  |  |  |  |  | concentration with mild hemolytic activity [3]: 16 µg/mL
CC(C)C[C@H](NC(=O)[C@H](CS)NC(=O)[C@H](Cc1ccccc1)NC(=O)[C@@H](N)CCCCN)C(=O)N[C@@H](CCCCN)C(=O)N[C@@H](Cc1ccccc1)C(=O)N[C@@H](CS)C(=O)N[C@@H](Cc1ccccc1)C(=O)N[C@@H](CCCCN)C(=O)NCC(=O)N[C@@H](Cc1ccccc1)C(=O)N[C@@H](CS)C(=O)N[C@@H](Cc1ccccc1)C(=O)N[C@@H](CCCCN)C(=O)N[C@@H](C)C(=O)N[C@@H](CS)C(=O)NCC(=O)N[C@@H](CCCCN)C(=O)O [Peptide R11] (H-KFCLKFCFKGFCFKACGK-OH; N-terminus and C-terminus assumed) |  |  |  |  | 0.3 (≈ 0.142 µM) |  |  |  | 356.7 | 0.9 |  | 1.7 | 6.7 | 1.7 | 6.7 | concentrations not cytotoxic ([2]; Balb/c 3T3, neutral red uptake, 48 h, tested 3.9–500 μg/mL): 3.9 µg/mL; hemolysis ratio (HR) ([3]; 32 μg/mL): below 2%; hemolysis ratio (HR) ([3]; 64 μg/mL): 2.85–7.03%
CC[C@H](C)[C@H](NC(=O)[C@H](CCCCN)NC(=O)[C@@H](N)CCCCN)C(=O)N[C@@H](C)C(=O)N[C@@H](CCCCN)C(=O)N[C@@H](CCCCN)C(=O)N[C@@H](Cc1ccccc1)C(=O)N[C@@H](Cc1c[nH]c2ccccc12)C(=O)N[C@@H](CCCCN)C(=O)N[C@@H](CCCCN)C(=O)N[C@@H](Cc1ccccc1)C(=O)N[C@@H](Cc1c[nH]c2ccccc12)C(=O)N[C@@H](CCCCN)C(=O)N[C@@H](Cc1ccccc1)C(=O)N[C@@H](Cc1c[nH]c2ccccc12)C(=O)N1CCC[C@H]1C(=O)N[C@@H](CCCCN)C(=O)N[C@@H](Cc1ccccc1)C(=O)N[C@@H](Cc1c[nH]c2ccccc12)C(=O)N[C@@H](CCCCN)C(=O)N[C@H](C(=O)N[C@@H](Cc1ccccc1)C(=O)N[C@@H](CCCCN)C(=O)N[C@@H](CCCCN)C(=O)O)[C@@H](C)CC [Peptide R14] (H-KKIAKKFWKKFWKFWPKFWKIFKK-OH) | 16.0 (≈ 4.84 µM) | 4.0 (≈ 1.21 µM) | 8.0 (≈ 2.42 µM) | 4.0 (≈ 1.21 µM) | 1.0 (≈ 0.303 µM) | 8.0 (≈ 2.42 µM) |  | 21.07 |  | 2.2 | strong hemolytic activity | 8.8 | 4.4 | 8.8 | 4.4 | hemolysis ratio (HR) [3]: > 5%

The next lines start with results.

MIC E. coli (E. coli) [µg/mL] | MIC K. pneumonia (K. pneumonia) [µg/mL] | MIC S. aureus (S. aureus) [µg/mL] | MIC P. aeruginosa (P. aeruginosa) [µg/mL] | MIC C. acnes (C. acnes) [µg/mL] | MIC E. faecium (E. faecium) [µg/mL] | SMILES | IC50, viability of human primary dermal fibroblasts [1] [µg/mL] | IC50, viability of Balb/c 3T3 cells ([2]; 48 h) [µg/mL] | Therapeutic Index C. acnes (C. acnes) | Therapeutic Index E. coli (E. coli) | hemolytic activity [3] | Therapeutic Index K. pneumonia (K. pneumonia) | Therapeutic Index S. aureus (S. aureus) | Therapeutic Index P. aeruginosa (P. aeruginosa) | Therapeutic Index E. faecium (E. faecium) | further results
8.0 (≈ 2.8 µM) | 4.0 (≈ 1.4 µM) | 8.0 (≈ 2.8 µM) | 8.0 (≈ 2.8 µM) | 2.0 (≈ 0.699 µM) | 16.0 (≈ 5.6 µM) | CC[C@H](C)[C@H](NC(=O)[C@H](Cc1ccccc1)NC(=O)[C@H](CCCCN)NC(=O)[C@H](CCCCN)NC(=O)[C@H](Cc1ccccc1)NC(=O)[C@H](CCCCN)NC(=O)[C@H](CCCCN)NC(=O)[C@H](C)NC(=O)[C@H](Cc1ccccc1)NC(=O)[C@H](CCCCN)NC(=O)[C@H](CCCCN)NC(=O)[C@@H](NC(=O)[C@@H](N)Cc1ccccc1)[C@@H](C)CC)C(=O)N[C@@H](CCCCN)C(=O)N[C@@H](CCCCN)C(=O)N[C@@H](Cc1ccccc1)C(=O)N[C@@H](C)C(=O)N[C@@H](CCCCN)C(=O)N[C@@H](Cc1ccccc1)C(=O)N[C@@H](C)C(=O)N[C@@H](Cc1ccccc1)C(=O)N[C@@H](C)C(=O)N[C@@H](Cc1ccccc1)C(=O)O [Peptide R1] (H-FIKKFAKKFKKFIKKFAKFAFAF-OH; N-terminus and C-terminus assumed) | 128.07 | 63.84 | 64.04 |  |  |  |  |  |  | decrease of cell viability ([2]; Balb/c 3T3, at 15.63 μg/mL and above): more than 62%
 | 8.0 (≈ 2.91 µM) | 4.0 (≈ 1.46 µM) | 2.0 (≈ 0.729 µM) | 0.5 (≈ 0.182 µM) | 4.0 (≈ 1.46 µM) | CC[C@H](C)[C@H](NC(=O)[C@H](CCCCN)NC(=O)[C@@H](N)CCCCN)C(=O)N[C@@H](C)C(=O)N[C@@H](CCCCN)C(=O)N[C@@H](CCCCN)C(=O)N[C@@H](Cc1ccccc1)C(=O)N[C@@H](Cc1c[nH]c2ccccc12)C(=O)N[C@@H](CCCCN)C(=O)N[C@@H](CCCCN)C(=O)N[C@@H](Cc1ccccc1)C(=O)N[C@@H](Cc1c[nH]c2ccccc12)C(=O)N[C@@H](CCCCN)C(=O)N[C@@H](Cc1ccccc1)C(=O)N[C@@H](Cc1c[nH]c2ccccc12)C(=O)N[C@@H](CCCCN)C(=O)N[C@H](C(=O)N[C@@H](Cc1ccccc1)C(=O)N[C@@H](CCCCN)C(=O)N[C@@H](CCCCN)C(=O)O)[C@@H](C)CC [Peptide R10] (H-KKIAKKFWKKFWKFWKIFKK-OH) | 38.19 | 86.99 | 76.38 | 19.1 | strong hemolytic activity | 4.77 | 9.55 | 19.1 | 9.55 | 

Source: paper PMC10044245, “Comparative Evaluation of Existing and Rationally Designed Novel Antimicrobial Peptides for Treatment of Skin and Soft Tissue Infections” (Antibiotics, 2023)
